ChEMBL document CHEMBL1123983, “Bis(4-hydroxyphenyl)[2-(phenoxysulfonyl)phenyl]methane: isolation and structure elucidation of a novel estrogen from commercial preparations of phenol red (phenolsulfonphthalein)” (J Med Chem, 1988)

Biological target: Estrogen receptor (Homo sapiens) (UniProt Q92731+P03372)
Test: Estrogen-related induction of progesterone receptor expression in MCF-7 cells at 10e-6 M
Format: cell-based
Details: MCF7

PR level, % of control: 1680%
SMILES: O=S(=O)(Oc1ccccc1)c1ccccc1C(c1ccc(O)cc1)c1ccc(O)cc1
